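GI50 = concentration required for 50% inhibition of growth. TGI denotes the concentration required for complete inhibition of growth.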
Assays:
Test in all cases: inhibition of tumour cell growth, NCI panel, 384-well format
A498 renal = tested on: A498 renal
NCI-H226 lung = tested on: NCI-H226 lung
OVCAR-4 ovarian = tested on: OVCAR-4 ovarian
HCT-116 colon = tested on: HCT-116 colon
MDA-MB-435 melanoma = tested on: MDA-MB-435 melanoma
EKVX NSCLC = tested on: EKVX NSCLC
OVCAR-3 ovarian = tested on: OVCAR-3 ovarian
NCI-H522 lung = tested on: NCI-H522 lung
SK-MEL-28 melanoma = tested on: SK-MEL-28 melanoma
NCI-H322M lung = tested on: NCI-H322M lung
SR leukemia = tested on: SR leukemia
SNB-75 CNS = tested on: SNB-75 CNS
UACC-257 melanoma = tested on: UACC-257 melanoma
HT29 colon = tested on: HT29 colon
M14 melanoma = tested on: M14 melanoma
HOP-92 NSCLC = tested on: HOP-92 NSCLC
K-562 leukemia = tested on: K-562 leukemia
MOLT-4 leukemia = tested on: MOLT-4 leukemia
IGROV1 ovarian = tested on: IGROV1 ovarian
DU-145 prostate = tested on: DU-145 prostate
KM12 colon = tested on: KM12 colon
MCF7 breast = tested on: MCF7 breast
T-47D breast = tested on: T-47D breast
MALME-3M melanoma = tested on: MALME-3M melanoma
OVCAR-8 ovarian = tested on: OVCAR-8 ovarian
SK-MEL-5 melanoma = tested on: SK-MEL-5 melanoma
HCT-15 colon = tested on: HCT-15 colon
HS 578T breast = tested on: HS 578T breast
SK-MEL-2 melanoma = tested on: SK-MEL-2 melanoma
NCI-H460 NSCLC = tested on: NCI-H460 NSCLC
NCI-H23 lung = tested on: NCI-H23 lung
SF-268 CNS = tested on: SF-268 CNS
HL-60(TB) leukemia = tested on: HL-60(TB) leukemia
RXF 393 renal = tested on: RXF 393 renal
BT-549 breast = tested on: BT-549 breast
U251 glioblastoma = tested on: U251 glioblastoma
PC-3 prostate = tested on: PC-3 prostate
TK-10 renal = tested on: TK-10 renal
A549 NSCLC = tested on: A549 NSCLC
MDA-MB-468 breast = tested on: MDA-MB-468 breast
CAKI-1 renal = tested on: CAKI-1 renal
SNB-19 CNS = tested on: SNB-19 CNS
UACC-62 melanoma = tested on: UACC-62 melanoma
SF-539 CNS = tested on: SF-539 CNS
OVCAR-5 ovarian = tested on: OVCAR-5 ovarian
UO-31 renal = tested on: UO-31 renal
SF-295 CNS = tested on: SF-295 CNS
SK-OV-3 ovarian = tested on: SK-OV-3 ovarian
SN12C renal = tested on: SN12C renal
SW-620 colon = tested on: SW-620 colon
MDA-MB-231 breast = tested on: MDA-MB-231 breast
ACHN renal = tested on: ACHN renal
786-0 renal = tested on: 786-0 renal
COLO 205 colon = tested on: COLO 205 colon
HOP-62 NSCLC = tested on: HOP-62 NSCLC

With `CN[C@@H](C)C(=O)N[C@H](C(=O)N1CCC[C@H]1C(=O)Nc1sc(-c2ncco2)nc1-c1ccccc1)C1CCCCC1` the GI50 (A498 renal) was 5.13 µM, the TGI (A498 renal) was 17.9 µM and the GI50 (NCI-H226 lung) was 5.52 µM. For the same compound, the TGI (NCI-H226 lung) was 27.5 µM, the GI50 (OVCAR-4 ovarian) was < 0.01 µM and the GI50 (HCT-116 colon) was 0.43 µM. For the same compound, the TGI (HCT-116 colon) was 14.3 µM, the GI50 (MDA-MB-435 melanoma) was 1.6 µM and the TGI (MDA-MB-435 melanoma) was 13.5 µM. The GI50 (EKVX NSCLC) was 10.7 µM, the TGI (EKVX NSCLC) was 32.2 µM and the GI50 (OVCAR-3 ovarian) was 1.36 µM. The TGI (OVCAR-3 ovarian) was 15.5 µM, the GI50 (NCI-H522 lung) was 0.0966 µM and the TGI (NCI-H522 lung) was 1.08 µM. The GI50 (SK-MEL-28 melanoma) was 2.64 µM, the TGI (SK-MEL-28 melanoma) was 16.7 µM and the GI50 (NCI-H322M lung) was 13.5 µM. The TGI (NCI-H322M lung) was 39.6 µM, the GI50 (SR leukemia) was 0.182 µM and the TGI (SR leukemia) was 0.592 µM. For the same compound, the GI50 (SNB-75 CNS) was 2.52 µM, the TGI (SNB-75 CNS) was 11.1 µM and the GI50 (UACC-257 melanoma) was 2.27 µM. For the same compound, the TGI (UACC-257 melanoma) was 13.3 µM, the GI50 (HT29 colon) was 5.63 µM and the TGI (HT29 colon) was 18.1 µM. The GI50 (M14 melanoma) was 8.12 µM, the TGI (M14 melanoma) was 20.8 µM and the GI50 (HOP-92 NSCLC) was 9.99 µM. It also gave a TGI (HOP-92 NSCLC) of 21.8 µM, a GI50 (K-562 leukemia) of 2.18 µM and a TGI (K-562 leukemia) of 16.6 µM. For the same compound, the GI50 (MOLT-4 leukemia) was 4.34 µM, the TGI (MOLT-4 leukemia) was 14.9 µM and the GI50 (IGROV1 ovarian) was 10.5 µM. For the same compound, the TGI (IGROV1 ovarian) was 24.5 µM, the GI50 (DU-145 prostate) was 1.03 µM and the TGI (DU-145 prostate) was 10.5 µM. For the same compound, the GI50 (KM12 colon) was 1.21 µM, the TGI (KM12 colon) was 10.5 µM and the GI50 (MCF7 breast) was 0.16 µM. The TGI (MCF7 breast) was 1.18 µM, the GI50 (T-47D breast) was 16.7 µM and the TGI (T-47D breast) was 30.5 µM. For the same compound, the GI50 (MALME-3M melanoma) was 0.0256 µM, the TGI (MALME-3M melanoma) was 0.74 µM and the GI50 (OVCAR-8 ovarian) was 1.02 µM. The TGI (OVCAR-8 ovarian) was 2.87 µM, the GI50 (SK-MEL-5 melanoma) was 0.114 µM and the TGI (SK-MEL-5 melanoma) was 1.38 µM. For the same compound, the GI50 (HCT-15 colon) was 8.22 µM, the TGI (HCT-15 colon) was 21.4 µM and the GI50 (HS 578T breast) was 0.609 µM. The TGI (HS 578T breast) was 15.4 µM, the GI50 (SK-MEL-2 melanoma) was < 0.01 µM and the TGI (SK-MEL-2 melanoma) was 1.04 µM. For the same compound, the GI50 (NCI-H460 NSCLC) was 7.4 µM, the TGI (NCI-H460 NSCLC) was 21.3 µM and the GI50 (NCI-H23 lung) was 0.159 µM. It also gave a TGI (NCI-H23 lung) of 1.28 µM, a GI50 (SF-268 CNS) of 10.4 µM and a TGI (SF-268 CNS) of 22.3 µM. The GI50 (HL-60(TB) leukemia) was 0.0148 µM, the TGI (HL-60(TB) leukemia) was 0.584 µM and the GI50 (RXF 393 renal) was < 0.01 µM. The TGI (RXF 393 renal) was 0.0402 µM, the GI50 (BT-549 breast) was 0.234 µM and the TGI (BT-549 breast) was 2.32 µM. For the same compound, the GI50 (U251 glioblastoma) was 5.48 µM, the TGI (U251 glioblastoma) was 19.3 µM and the GI50 (PC-3 prostate) was 6.22 µM. The TGI (PC-3 prostate) was 19.8 µM, the GI50 (TK-10 renal) was 11.3 µM and the TGI (TK-10 renal) was 24.4 µM. The GI50 (A549 NSCLC) was 11.6 µM, the TGI (A549 NSCLC) was > 100 µM and the GI50 (MDA-MB-468 breast) was 0.476 µM. For the same compound, the TGI (MDA-MB-468 breast) was 5.23 µM, the GI50 (CAKI-1 renal) was 11.2 µM and the TGI (CAKI-1 renal) was 23.3 µM. For the same compound, the GI50 (SNB-19 CNS) was 18.6 µM, the TGI (SNB-19 CNS) was 61.4 µM and the GI50 (UACC-62 melanoma) was 0.781 µM. It also gave a TGI (UACC-62 melanoma) of 10.9 µM, a GI50 (SF-539 CNS) of 3.44 µM and a TGI (SF-539 CNS) of 17.3 µM. For the same compound, the GI50 (OVCAR-5 ovarian) was 10.7 µM, the TGI (OVCAR-5 ovarian) was 34.2 µM and the GI50 (UO-31 renal) was 15.9 µM. It also gave a TGI (UO-31 renal) of 29.6 µM, a GI50 (SF-295 CNS) of 3.72 µM and a TGI (SF-295 CNS) of 14.7 µM. The GI50 (SK-OV-3 ovarian) was < 0.01 µM, the TGI (SK-OV-3 ovarian) was 0.064 µM and the GI50 (SN12C renal) was 11 µM. For the same compound, the TGI (SN12C renal) was 23.6 µM, the GI50 (SW-620 colon) was 3.66 µM and the TGI (SW-620 colon) was 17.9 µM. It also gave a GI50 (MDA-MB-231 breast) of 0.14 µM, a TGI (MDA-MB-231 breast) of 0.909 µM and a GI50 (ACHN renal) of 4.35 µM. The TGI (ACHN renal) was 17.2 µM, the GI50 ([…]-0 renal) was 6.69 µM and the TGI (786-0 renal) was 19.9 µM. For the same compound, the GI50 (COLO 205 colon) was 2.05 µM, the TGI (COLO 205 colon) was 16 µM and the GI50 (HOP-62 NSCLC) was 1.08 µM. For the same compound, the TGI (HOP-62 NSCLC) was 2.68 µM.

Source: PubChem BioAssay (NCI)
